Assay results taken from the supplement of paper PMC10878532, “Sperm Toolbox—A selection of small molecules to study human spermatozoa” (PLOS ONE, 2024).

Tests used:
[1] = system: HepG2; experiment: HepG2 toxicity (resazurin), effect normalised to DMSO (DMSO = 0); higher = more features changed / larger toxic effect; details: incubation time: 70h incubation
[2] = system: HeLa; experiment: HeLa toxicity: nuclei-count effect normalised to DMSO (DMSO = 0); higher = more features changed / larger toxic effect; details: incubation time: 24h incubation
[3] = system: HeLa; experiment: Cell Painting percent induction (share of features beyond 2 z-scores vs DMSO); higher = more features changed / larger toxic effect; extreme values may be limits of the assay; details: incubation time: 24h incubation
[4] = system: human spermatozoa; experiment: total motile sperm, percent change vs DMSO (non-capacitating); higher = more of the measured sperm population than DMSO, for viability, fewer PI-positive (dead) cells than DMSO
[5] = system: human spermatozoa; experiment: viability fold change, 1 - (PI-positive fraction / DMSO median); higher = more of the measured sperm population than DMSO, for viability, fewer PI-positive (dead) cells than DMSO; details: incubation time: 3h, non-capacitating
[6] = system: human spermatozoa; experiment: progressively motile sperm, percent change vs DMSO (capacitating); higher = more of the measured sperm population than DMSO, for viability, fewer PI-positive (dead) cells than DMSO; details: incubation time: 30min incubation
[7] = system: human spermatozoa; experiment: hyperactivated motile sperm, percent change vs DMSO (capacitating); higher = more of the measured sperm population than DMSO, for viability, fewer PI-positive (dead) cells than DMSO; details: incubation time: 30min incubation
[8] = system: human spermatozoa; experiment: change in acrosome-reacted (PNA+) sperm vs DMSO, no agonist (capacitating); higher = more of the measured sperm population than DMSO, for viability, fewer PI-positive (dead) cells than DMSO; details: incubation time: 3h
[9] = system: human spermatozoa; experiment: acrosome-reacted (PNA+) sperm after agonist cocktail, percent change vs DMSO (capacitating); higher = more of the measured sperm population than DMSO, for viability, fewer PI-positive (dead) cells than DMSO; details: incubation time: 3h, capacitating + agonist cocktail 1h
[10] = system: human spermatozoa; experiment: progressively motile sperm, percent change vs DMSO (non-capacitating); higher = more of the measured sperm population than DMSO, for viability, fewer PI-positive (dead) cells than DMSO; extreme values may be limits of the assay
[11] = incubation time: 10min incubation, 9.99 µM
[12] = incubation time: 10min incubation, 29.9 µM
[13] = incubation time: 3h incubation, 9.99 µM
[14] = incubation time: 3h incubation, 29.9 µM
[15] = incubation time: 6h incubation, 9.99 µM
[16] = incubation time: 6h incubation, 29.9 µM
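Wherever progressively motile sperm, percent change vs DMSO (non-capacitating) is given: pooled live human sperm from at least 3 donors, tracked by automated microscopy in 0.5 s time-lapse movies, compounds at 10 and 30 µM, versus median of 16 DMSO wells per plate.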
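Wherever total motile sperm, percent change vs DMSO (non-capacitating) is given: sperm pooled from at least 3 donors, tracked in 0.5 s time-lapse movies by automated microscopy after 10 min, 3 h or 6 h with compound at 10 or 30 µM.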

For `CCOCc1nc2c(N)nc3ccccc3c2n1CC(C)(C)O` [Resiquimod], the HepG2 toxicity ([1]; 10 µM) was 12.3%, the HepG2 toxicity ([1]; 30 µM) was -1.68% and the “HeLa toxicity: nuclei-count effect normalised” value ([2]; 9.99 µM) was 1.14%. For the same molecule, the “HeLa toxicity: nuclei-count effect normalised” value ([2]; 29.9 µM) was 0.735%, the “Cell Painting percent induction” value ([3]; 9.99 µM) was 0% and the “Cell Painting percent induction” value ([3]; 29.9 µM) was 0%. For the same molecule, the total motile sperm [4, 11] was -0.764%, the total motile sperm [4, 12] was -12.1% and the total motile sperm [4, 13] was -11.9%. For the same molecule, the total motile sperm [4, 14] was -23.9%, the total motile sperm [4, 15] was -12.4% and the total motile sperm [4, 16] was -21.3%. For the same molecule, the viability fold change ([5]; 9.99 µM) was -0.843, the viability fold change ([5]; 29.9 µM) was -0.207 and the progressively motile sperm ([6]; 9.99 µM) was -29.5%. For the same molecule, the progressively motile sperm ([6]; 29.9 µM) was -59.7%, the hyperactivated motile sperm ([7]; 9.99 µM) was -81.8% and the hyperactivated motile sperm ([7]; 29.9 µM) was -84.5%. For the same molecule, the change in acrosome-reacted ([8]; 9.99 µM) was 0.989%, the change in acrosome-reacted ([8]; 29.9 µM) was 0.739% and the acrosome-reacted ([9]; 9.99 µM) was 2.21%. It also gave an acrosome-reacted ([9]; 29.9 µM) of -0.339%, a progressively motile sperm [10, 11] of -38.4% and a progressively motile sperm [10, 12] of -75.7%. The progressively motile sperm [10, 13] was -66.1%, the progressively motile sperm [10, 14] was -88% and the progressively motile sperm [10, 15] was -66.2%. For the same molecule, the progressively motile sperm [10, 16] was -83.9%.

For `[O-][S+](c1ccccc1)c1ccc2nnnn2n1` (stereo not given) [Ro 106-9920], the HepG2 toxicity ([1]; 10 µM) was 103%, the HepG2 toxicity ([1]; 30 µM) was 103% and the “HeLa toxicity: nuclei-count effect normalised” value ([2]; 9.99 µM) was 43.7%. The “HeLa toxicity: nuclei-count effect normalised” value ([2]; 29.9 µM) was 96.9%, the “Cell Painting percent induction” value ([3]; 9.99 µM) was 0.684% and the “Cell Painting percent induction” value ([3]; 29.9 µM) was 42.4%. For the same molecule, the total motile sperm [4, 11] was -8.15%, the total motile sperm [4, 12] was -30.9% and the total motile sperm [4, 13] was -92.3%. For the same molecule, the total motile sperm [4, 14] was -89.9%, the total motile sperm [4, 15] was -92.2% and the total motile sperm [4, 16] was -89.8%. For the same molecule, the viability fold change ([5]; 9.99 µM) was -0.184, the viability fold change ([5]; 29.9 µM) was -0.13 and the progressively motile sperm ([6]; 9.99 µM) was -9.75%. The progressively motile sperm ([6]; 29.9 µM) was -78.3%, the hyperactivated motile sperm ([7]; 9.99 µM) was -3.35% and the hyperactivated motile sperm ([7]; 29.9 µM) was -67.1%. For the same molecule, the change in acrosome-reacted ([8]; 9.99 µM) was 8.05%, the change in acrosome-reacted ([8]; 29.9 µM) was 18.3% and the acrosome-reacted ([9]; 9.99 µM) was 149%. The acrosome-reacted ([9]; 29.9 µM) was 142%, the progressively motile sperm [10, 11] was -34.9% and the progressively motile sperm [10, 12] was -68.2%. For the same molecule, the progressively motile sperm [10, 13] was -100%, the progressively motile sperm [10, 14] was -99.9% and the progressively motile sperm [10, 15] was -100%. For the same molecule, the progressively motile sperm [10, 16] was -100%.

`[O]=[V]([O-])([O-])[O-]` [Sodium orthovanadate] was tested, and the HepG2 toxicity ([1]; 10 µM) was -3.1%, the HepG2 toxicity ([1]; 30 µM) was 8.27% and the “HeLa toxicity: nuclei-count effect normalised” value ([2]; 9.99 µM) was -6.61%. For the same molecule, the “HeLa toxicity: nuclei-count effect normalised” value ([2]; 29.9 µM) was -4.07%, the “Cell Painting percent induction” value ([3]; 9.99 µM) was 0% and the “Cell Painting percent induction” value ([3]; 29.9 µM) was 0%. The total motile sperm [4, 11] was 2.91%, the total motile sperm [4, 12] was 0.876% and the total motile sperm [4, 13] was 8.66%. It also gave a total motile sperm [4, 14] of -0.441%, a total motile sperm [4, 15] of 8.42% and a total motile sperm [4, 16] of -0.812%. It also gave a viability fold change ([5]; 9.99 µM) of -0.276, a viability fold change ([5]; 29.9 µM) of -0.0929 and a progressively motile sperm ([6]; 9.99 µM) of 5.23%. It also gave a progressively motile sperm ([6]; 29.9 µM) of 3.21%, a hyperactivated motile sperm ([7]; 9.99 µM) of 14.9% and a hyperactivated motile sperm ([7]; 29.9 µM) of 5.6%. The change in acrosome-reacted ([8]; 9.99 µM) was 0.239%, the change in acrosome-reacted ([8]; 29.9 µM) was 0.284% and the acrosome-reacted ([9]; 9.99 µM) was 9.33%. For the same molecule, the acrosome-reacted ([9]; 29.9 µM) was 1.67%, the progressively motile sperm [10, 11] was 7.34% and the progressively motile sperm [10, 12] was 4.35%. The progressively motile sperm [10, 13] was 13.8%, the progressively motile sperm [10, 14] was 7.93% and the progressively motile sperm [10, 15] was 20%. For the same molecule, the progressively motile sperm [10, 16] was 10.3%.

With `CCc1c(C)nc(SCC(=O)Nc2nc(-c3ccc(OC)cc3)cs2)[nH]c1=O` [T16Ainh-A01] the HepG2 toxicity ([1]; 10 µM) was -6.4%, the HepG2 toxicity ([1]; 30 µM) was -1.86% and the “HeLa toxicity: nuclei-count effect normalised” value ([2]; 9.99 µM) was 6.48%. The “HeLa toxicity: nuclei-count effect normalised” value ([2]; 29.9 µM) was -5.14%, the “Cell Painting percent induction” value ([3]; 9.99 µM) was 0% and the “Cell Painting percent induction” value ([3]; 29.9 µM) was 0.108%. It also gave a total motile sperm [4, 11] of 2.04%, a total motile sperm [4, 12] of 2.24% and a total motile sperm [4, 13] of -4.04%. The total motile sperm [4, 14] was 0.707%, the total motile sperm [4, 15] was -7.94% and the total motile sperm [4, 16] was -0.932%. For the same molecule, the viability fold change ([5]; 9.99 µM) was -0.653, the viability fold change ([5]; 29.9 µM) was -0.578 and the progressively motile sperm ([6]; 9.99 µM) was 2.99%. It also gave a progressively motile sperm ([6]; 29.9 µM) of 14.4%, a hyperactivated motile sperm ([7]; 9.99 µM) of -2.36% and a hyperactivated motile sperm ([7]; 29.9 µM) of -0.263%. The change in acrosome-reacted ([8]; 9.99 µM) was 0.555%, the change in acrosome-reacted ([8]; 29.9 µM) was 1.02% and the acrosome-reacted ([9]; 9.99 µM) was 8.11%. The acrosome-reacted ([9]; 29.9 µM) was 6.61%, the progressively motile sperm [10, 11] was 5.37% and the progressively motile sperm [10, 12] was 6.45%. For the same molecule, the progressively motile sperm [10, 13] was 1.94%, the progressively motile sperm [10, 14] was 14.7% and the progressively motile sperm [10, 15] was 4.81%. It also gave a progressively motile sperm [10, 16] of 19.4%.

In the case of `CNC(=O)c1ccccc1Nc1nc(Nc2ccc(N3CCOCC3)cc2OC)ncc1Cl` [TAE226], the HepG2 toxicity ([1]; 10 µM) is reported as 92.5%, the HepG2 toxicity ([1]; 30 µM) is reported as 99.8% and the “HeLa toxicity: nuclei-count effect normalised” value ([2]; 9.99 µM) is reported as 45.5%. For the same molecule, the “HeLa toxicity: nuclei-count effect normalised” value ([2]; 29.9 µM) was 83.4%, the “Cell Painting percent induction” value ([3]; 9.99 µM) was 1.84% and the “Cell Painting percent induction” value ([3]; 29.9 µM) was 21.1%. It also gave a total motile sperm [4, 11] of 0.613%, a total motile sperm [4, 12] of 1.31% and a total motile sperm [4, 13] of -18.9%. For the same molecule, the total motile sperm [4, 14] was -22.2%, the total motile sperm [4, 15] was -16.2% and the total motile sperm [4, 16] was -14.9%. For the same molecule, the viability fold change ([5]; 9.99 µM) was -0.257, the viability fold change ([5]; 29.9 µM) was 0.581 and the progressively motile sperm ([6]; 9.99 µM) was -5.22%. It also gave a progressively motile sperm ([6]; 29.9 µM) of -5.06%, a hyperactivated motile sperm ([7]; 9.99 µM) of 137% and a hyperactivated motile sperm ([7]; 29.9 µM) of 34.1%. It also gave a change in acrosome-reacted ([8]; 9.99 µM) of 1.37%, a change in acrosome-reacted ([8]; 29.9 µM) of 1.97% and an acrosome-reacted ([9]; 9.99 µM) of 10.7%. It also gave an acrosome-reacted ([9]; 29.9 µM) of 31.6%, a progressively motile sperm [10, 11] of 30.1% and a progressively motile sperm [10, 12] of 34.5%. For the same molecule, the progressively motile sperm [10, 13] was 9.37%, the progressively motile sperm [10, 14] was 3.96% and the progressively motile sperm [10, 15] was 25.7%. The progressively motile sperm [10, 16] was 23.8%.
